# According to PMC11729428, “New Potent Inhibitor of Transforming Growth Factor-Beta (TGFβ) Signaling that is Efficacious against Microsatellite Stable Colorectal Cancer Metastasis in Combination with Immune Checkpoint Therapy in Mice” (ACS Pharmacology & Translational Science, 2024):
# Several values for one entry are separate records, joined by “and”; a condition that tells them apart may be missing. Equal values may be shown once.
# How the values were obtained:
# ALK5 = conditions: cited from earlier work
# ALK4 (ACVR1B) = target: T1, ALK4 (ACVR1B) (Homo sapiens, UniProt P36896); experiment: KINOMEscan competitive binding assay (Kd); conditions: analyses herein; read-out: Binding constant (Kd) ALK4 (ACVR1B)
# T1 sequence (P36896 24-505): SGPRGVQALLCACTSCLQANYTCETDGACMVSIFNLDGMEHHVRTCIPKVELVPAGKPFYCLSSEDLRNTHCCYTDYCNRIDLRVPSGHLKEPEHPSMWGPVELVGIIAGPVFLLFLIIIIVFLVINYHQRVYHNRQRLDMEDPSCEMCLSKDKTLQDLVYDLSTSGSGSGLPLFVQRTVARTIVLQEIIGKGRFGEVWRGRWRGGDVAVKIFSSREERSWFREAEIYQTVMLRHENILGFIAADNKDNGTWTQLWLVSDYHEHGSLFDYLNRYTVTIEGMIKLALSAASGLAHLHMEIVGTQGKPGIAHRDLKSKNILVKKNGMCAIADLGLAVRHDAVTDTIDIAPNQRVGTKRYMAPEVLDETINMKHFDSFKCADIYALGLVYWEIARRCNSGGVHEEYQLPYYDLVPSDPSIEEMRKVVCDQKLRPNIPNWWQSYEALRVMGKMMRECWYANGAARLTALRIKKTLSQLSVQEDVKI
# Protocol: (§1) 5. Methods for In vitro characterizations of HYL001
# (§2) Kinase affinity and selectivity
# (§3) The affinity of the ALK5 inhibitor HYL001 was determined for the ALK kinase family using the […]
# (§4) DNA-tagged kinases and immobilized assay ligands, using quantitative PCR —run by Eurofins/DiscoveryX (Birmingham AL, USA). Dissociation constants were calculated by measuring the amount of kinase captured on the solid support as a function of the test compound concentration. Kd values were obtained by an 11 -point half-log dilution range of 0.5–30,000 nM of inhibitor for ALK1 (ACVRL1), ALK2 (ACVR1), ALK3 (BMPR1A), ALK4 (ACVR1B), ALK6 (BMPR1B), ACVR2B and TGFβ R2. In addition, this technology was used to assess selectivity towards a panel of 97 Kinases (scanEDGE) by Eurofins Panlabs (Grapevine TX, USA).
# (§5) The strength of competitive binding, defined as the percentage of binding inhibition of kinases to assay ligan d, was visualized using the TREEspot software (DiscoverRx Corporation) and a selectivity score was calculated (the fraction of non -mutated kinases tested with competitive binding inhibition above threshold percentages 65 […]
# ALK5 (TGFBR1) = ALK5 (TGFBR1) (Homo sapiens, UniProt P36897); experiment: KINOMEscan competitive binding assay (Kd); conditions: analyses herein; HYL001 run twice, average 22.5 nM; read-out: Binding constant (Kd) ALK5 (TGFBR1)
# Protocol: as §1, §2, §3, §4, §5
# panel of enzymes = experiment: In vitro safety pharmacology, enzymatic inhibition (SafetyScreen 44); assay type: biochemical; conditions: 10 μM HYL001
# Protocol: To identify potential adverse off-target drug interactions and derisk the development of HYL001 as a drug,[22] we performed binding and enzymatic inhibition assays with a panel of key proteins (mainly cell receptors, neurotransmitter transporters, and ion channels). […]
# analysis by LC-MS/MS, using MRM mode. […]
# related to phase I and phase II metabolism, respectively.
# The PARs were used for calculation of metabolic stability. The 0 min area ratio was considered as 100%. The […]
# incubation volume / number of cells (in millions) x K e. To calculate into full body context, the values of 120 […]
# In vitro safety pharmacology […]
# compared with historical values determined at Eurofins. Binding was defined as the % inhibition of the signal […]
# enzyme activity. […] Results showing
# The tail current amplitude, induced by a one […]
# and expressed as % inhibition.
# The Ames test was performed at Xenomatrix (Allschwil, Switzerland). Bacteria from the S. typhimurium
# [1] = tested on: Salmonella typhimurium strains TA98, TA100, TA1535 and TA1537; experiment: Ames test; assay type: cell-based
# Protocol: The mutagenic potential of HYL001 was evaluated by the Ames test, assessing its ability to induce reverse mutations in the histidine operon of Salmonella typhimurium strains that allow for detection of both substitution mutations (TA100 and TA1535) and frameshift mutations (TA98 and TA1537). The mutagenic potential of HYL001 was tested at 6 concentrations (semilog 1–320 μg/mL) alone or in the presence of liver S9 fractions. […]
# The Ames test was performed at Xenomatrix (Allschwil, Switzerland). Bacteria from the S. typhimurium […]
# negative control, for 90 minutes in medium containing sufficient histidine to support approximately two cell divisions. After exposure, the cultures were diluted in pH indicator medium lacking histidine or tryptophan and aliquoted into 48 wells of a 384-well plate. Within two days, cells that have undergone reversion to amino acid prototrophy grow into colonies. The number of wells containing revertant colonies were counted by pH indicator colour change for each dose and compared to a solvent (negative) control. A dose dependent increase in the number of revertant colonies upon exposure to HYL001 would have indicated mutagenicity.
# [2] = Plasma pharmacokinetics after single oral administration in mice; assay type: in vivo; conditions: male, mouse, 71 mg/kg
# Protocol: We assessed the in vivo pharmacokinetic properties of HYL001 after a single oral administration (dose of 71 mg/kg) in BALB/c mice as well as in Sprague–Dawley (SD) Rats. Liquid chromatography–tandem mass spectrometry (LC/MS/MS) was used for the determination of HYL001 in plasma (Figure S2 and Table 2).
# 6. Methods for in vivo characterizations of HYL001 […]
# WinNonlin software (Version 8.0) […]
# [3] = tested on: TGFβ targets (phospho-SMAD2, CTHRC1, Caldesmon); experiment: Protein expression of TGFβ targets in established liver metastases; assay type: in vivo; conditions: mice with established liver metastases
# Text: (Figure S4). […] Moreover, these mice were resistant to immune checkpoint therapy like human patients with pMMR/MSS CRC are in the clinic.[5],[33]
# ALK5 (TGFBR1), sequence (P36897 34-503): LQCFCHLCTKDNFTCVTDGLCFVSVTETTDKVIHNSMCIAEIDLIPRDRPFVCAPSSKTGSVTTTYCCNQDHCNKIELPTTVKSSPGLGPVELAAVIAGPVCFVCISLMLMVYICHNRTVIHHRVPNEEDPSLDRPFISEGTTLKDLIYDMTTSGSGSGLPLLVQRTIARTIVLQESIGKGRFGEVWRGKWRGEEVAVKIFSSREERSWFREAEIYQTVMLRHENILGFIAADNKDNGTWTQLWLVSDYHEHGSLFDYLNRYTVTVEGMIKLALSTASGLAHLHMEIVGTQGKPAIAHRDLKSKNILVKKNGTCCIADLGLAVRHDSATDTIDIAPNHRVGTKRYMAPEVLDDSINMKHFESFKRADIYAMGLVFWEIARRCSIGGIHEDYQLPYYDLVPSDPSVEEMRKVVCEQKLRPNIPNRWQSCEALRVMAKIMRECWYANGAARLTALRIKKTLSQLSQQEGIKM
compound,measurement,setting,value
"Cc1cccc(-c2nn3c(c2-c2ccnc4ccc(O)cc24)CCC3)n1 [HYL001, 4-(2-(6-Methylpyridin-2-yl)-5,6-dihydro-4H-pyrrolo[1,2-b]pyrazol-3-yl)quinolin-6-ol]",Kd,ALK4 (ACVR1B),13 nM
same,Kd,ALK5 (TGFBR1),25 nM and 22.5 nM
same,Inhibition of any of the tested enzymatic activities,panel of enzymes,≤ 50%
same,Positive mutagenic responses (Ames test),"[1]; 6 concentrations 1–320 μg/mL, alone or with liver S9, all strains",No positive mutagenic responses
same,Dose dependency,"[1]; TA98, w/o S9",No
same,Mutagenic data points,"[1]; TA98, w/o S9",No
same,Dose dependency,"[1]; TA98, with S9",No
same,Mutagenic data points,"[1]; TA98, with S9",No
same,Dose dependency,"[1]; TA100, w/o S9",No
same,Mutagenic data points,"[1]; TA100, w/o S9",No
same,Dose dependency,"[1]; TA100, with S9",No
same,Mutagenic data points,"[1]; TA100, with S9",No
same,Dose dependency,"[1]; TA1535, w/o S9",No
same,Mutagenic data points,"[1]; TA1535, w/o S9",No
same,Dose dependency,"[1]; TA1535, with S9",No
same,Mutagenic data points,"[1]; TA1535, with S9",No
same,Dose dependency,"[1]; TA1537, w/o S9",No
same,Mutagenic data points,"[1]; TA1537, w/o S9",No
same,Dose dependency,"[1]; TA1537, with S9",No
same,Mutagenic data points,"[1]; TA1537, with S9",No
same,half-life,"[2]; BALB/c, po",~2.5 h
same,AUC(0-inf),[2]; mice (♂ BALB/c),4110 ng·h/mL
same,AUC(0-t),[2]; mice (♂ BALB/c),3520 ng·h/mL
same,CL/F,[2]; mice (♂ BALB/c),288 mL/min/kg
same,Cmax,[2]; mice (♂ BALB/c),2050 ng/mL
same,Tmax,[2]; mice (♂ BALB/c),0.25 h
same,Vd/F,"[2]; mice (♂ BALB/c), read-out: Vss/F",66.7 L/kg
same,"Protein expression of TGFβ targets (phospho-SMAD2, CTHRC1, Caldesmon)",[3],marked decrease
